# Test results as given in patent US7691382B2, “Antiviral polypeptides comprising tandem repeats of APOE 141-149 and variants thereof” (priority 2003, dated 2010).
# Values joined by “and” are separate entries in the source; they are usually repeats but may differ in a detail not shown here. Equal values may be shown once. Read-outs that look alike come from different tables or passages of the source. Peptide text beside a SMILES is read from it.
# What was measured:
# HSV1 [1] = experiment: HSV1 plaque formation in Vero cells (Example 1); format: cell-based, Human herpes simplex virus type 1; conditions: for HSV1 plaque formation in Vero cells, plaque count, wells 1-4: 1 hour, listed as ApoE141-149dp; for HSV1 plaque formation in Vero cells, Mean ± sd: untreated 107 ± 14.2
# Experimental: FIG. 1 and table 1 show typical results for the test for anti-HSV1 activity. The assay involved treating confluent Vero cells in 24-well plates with medium containing virus and varying amounts of peptide for one hour, followed by removal of this inoculum, and addition of viscous ‘overlay’ medium, containing 0.2% high viscosity carboxymethylcellulose. The overlay medium only allows infection of those cells immediately adjacent to an infected cell. After 2 days incubation and then fixation and staining, small patches of infected cells (or ‘plaques’) are visible, which are counted. Each of these corresponds to the infection of a single cell during the one hour inoculation. ApoE141-149dp produced a 40% reduction in plaque number at a concentration of around 20 μM. Note the peptide was only present in the experimental system for 1 hour.
# HSV2 = HSV2 plaque formation in HEp-2 cells (Example 1); format: cell-based, Human herpes simplex virus type 2; conditions: for HSV2 plaque formation in HEp-2 cells, plaque count, wells 1-4: 1 hour, listed as ApoE141-149dp; for HSV2 plaque formation in HEp-2 cells, Mean ± sd: untreated 152 ± 10.7
# Experimental: FIG. 2 and table 2 show typical results for the test for anti-HSV2 activity. The assay was carried out as for the anti-HSV1 assay, except Hep-2 cells were used rather than Vero cells. ApoE141-149dp produced a 50% reduction in plaque number at a concentration of around 20 μM. Again note that the peptide was only present in the experimental system for 1 hour.
# HSV1 [2] = format: cell-based, Human herpes simplex virus type 1
# Summary of the method: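 Plaque reduction in Vero monolayers: ~100 pfu HSV1 pre-mixed 10 min at 37 °C with acetylated/amidated peptides in 0.5% FCS medium, inoculated 60–80 min, then carboxymethylcellulose overlay for 22 or 40 h. Plaques counted after fixing and carbol fuchsin staining; IC50 from % of control versus peptide concentration.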
# HIV-1 = conditions: for % Decrease in HIV p24 Production, Exp. 1-3: listed as ApoE141-149dp
# Experimental: The assay was carried out by incubating HIV infected U937 cells in the presence of various levels of peptide for 7 days, followed by assay for levels of the HIV protein p24 in the cells using an Enzyme Linked Immunoabsorbant Assay (ELISA) technique.
# HSV2 clinical isolates = format: cell-based, Human herpes simplex virus type 2
# Experimental: Plaque assays were performed. The methodology was as described in previous Examples for HSV1 plaque assays (including usage of Vero cells) except HSV2 clinical isolates (provided by Prof. Anthony Hart of Liverpool University) were employed instead.
# [3] = at a concentration of around 20 μM, peptide present 1 hour
# [4] = peptide 10 μM in virus inoculum
# [5] = peptide 20 μM in virus inoculum
# [6] = peptide 30 μM in virus inoculum
# [7] = peptide 40 μM in virus inoculum
# [8] = peptide 10 μM, U937 cells, 7 days
# [9] = peptide 20 μM, U937 cells, 7 days
# [10] = peptide 30 μM, U937 cells, 7 days
# [11] = peptide 40 μM, U937 cells, 7 days
# [12] = peptide 50 μM, U937 cells, 7 days
compound,measurement,setting,value
CC(C)C[C@H](NC(=O)[C@H](CC(C)C)NC(=O)[C@H](CCCNC(=N)N)NC(=O)[C@H](CCCCN)NC(=O)[C@H](CCCNC(=N)N)NC(=O)[C@H](CC(C)C)NC(=O)[C@H](CCCCN)NC(=O)[C@H](CCCNC(=N)N)NC(=O)[C@H](CC(C)C)NC(=O)[C@H](CC(C)C)NC(=O)[C@H](CC(C)C)NC(=O)[C@H](CCCNC(=N)N)NC(=O)[C@H](CCCCN)NC(=O)[C@H](CCCNC(=N)N)NC(=O)[C@H](CC(C)C)NC(=O)[C@H](CCCCN)NC(=O)[C@H](CCCNC(=N)N)NC(=O)[C@@H](N)CC(C)C)C(=O)O [GIN 1] (H-LRKLRKRLLLRKLRKRLL-OH),reduction in plaque number (HSV1),HSV1 [1]; [3],40%
same,"HSV1 plaque formation in Vero cells, plaque count, wells 1-4",HSV1 [1]; peptide 5 μM in virus inoculum,129 and 106 and 103 and 100
same,"HSV1 plaque formation in Vero cells, Mean ± sd",HSV1 [1]; peptide 5 μM,110 ± 13.2
same,"HSV1 plaque formation in Vero cells, plaque count, wells 1-4",HSV1 [1]; [4],73 and 87 and 76 and 89
same,"HSV1 plaque formation in Vero cells, Mean ± sd",HSV1 [1]; peptide 10 μM,81 ± 7.9
same,"HSV1 plaque formation in Vero cells, plaque count, wells 1-4",HSV1 [1]; [5],68 and 67 and 63
same,"HSV1 plaque formation in Vero cells, Mean ± sd",HSV1 [1]; peptide 20 μM,65 ± 2.6
same,"HSV1 plaque formation in Vero cells, plaque count, wells 1-4",HSV1 [1]; [6],72 and 71 and 56
same,"HSV1 plaque formation in Vero cells, Mean ± sd",HSV1 [1]; peptide 30 μM,66 ± 9.0
same,"HSV1 plaque formation in Vero cells, plaque count, wells 1-4",HSV1 [1]; [7],64 and 65 and 53 and 68
same,"HSV1 plaque formation in Vero cells, Mean ± sd",HSV1 [1]; peptide 40 μM,63 ± 6.6
same,reduction in plaque number (HSV2),HSV2; [3],50%
same,"HSV2 plaque formation in HEp-2 cells, plaque count, wells 1-4",HSV2; peptide 5 μM in virus inoculum,160 and 134 and 140 and 130
same,"HSV2 plaque formation in HEp-2 cells, Mean ± sd",HSV2; peptide 5 μM,141 ± 13.3
same,"HSV2 plaque formation in HEp-2 cells, plaque count, wells 1-4",HSV2; [4],125 and 113 and 131 and 132
same,"HSV2 plaque formation in HEp-2 cells, Mean ± sd",HSV2; peptide 10 μM,125 ± 8.7
same,"HSV2 plaque formation in HEp-2 cells, plaque count, wells 1-4",HSV2; [5],82 and 72 and 73 and 81
same,"HSV2 plaque formation in HEp-2 cells, Mean ± sd",HSV2; peptide 20 μM,77 ± 5.2
same,"HSV2 plaque formation in HEp-2 cells, plaque count, wells 1-4",HSV2; [6],76 and 77 and 71 and 72
same,"HSV2 plaque formation in HEp-2 cells, Mean ± sd",HSV2; peptide 30 μM,74 ± 2.9
same,"HSV2 plaque formation in HEp-2 cells, plaque count, wells 1-4",HSV2; [7],51 and 59 and 69 and 49
same,"HSV2 plaque formation in HEp-2 cells, Mean ± sd",HSV2; peptide 40 μM,57 ± 9.1
same,IC50,HSV1 [2],16.5 µM
same,efficacy for reducing HSV1 infectivity (in words),HSV1 [2]; Examples 2 and 3,good efficacy
same,"activity against HIV, significance by ANOVA (in words)","HIV-1; FIG. 3, acutely infected U937 cells",significantly active
same,reduction in infectivity (HIV),"HIV-1; at 20 μM, U937 cells, 7 days",95%
same,"% Decrease in HIV p24 Production, Mean ± sd",HIV-1; [8],83.94 ± 11.84%
same,"% Decrease in HIV p24 Production, Exp. 1-3",HIV-1; [8],91.66% and 70.31% and 89.85%
same,"% Decrease in HIV p24 Production, Mean ± sd",HIV-1; [9],95.02 ± 1.89%
same,"% Decrease in HIV p24 Production, Exp. 1-3",HIV-1; [9],96.87% and 95.08% and 93.10%
same,"% Decrease in HIV p24 Production, Mean ± sd",HIV-1; [10],90.78 ± 4.49%
same,"% Decrease in HIV p24 Production, Exp. 1-3",HIV-1; [10],95.94% and 88.63% and 87.77%
same,"% Decrease in HIV p24 Production, Mean ± sd",HIV-1; [11],95.87 ± 0.81%
same,"% Decrease in HIV p24 Production, Exp. 1-3",HIV-1; [11],96.80% and 95.47% and 95.33%
same,"% Decrease in HIV p24 Production, Mean ± sd",HIV-1; [12],94.79 ± 1.34%
same,"% Decrease in HIV p24 Production, Exp. 1-3",HIV-1; [12],95.73% and 93.25% and 95.38%
CC(=O)N[C@@H](Cc1c[nH]c2ccccc12)C(=O)N[C@@H](CCCNC(=N)N)C(=O)N[C@@H](CCCCN)C(=O)N[C@@H](Cc1c[nH]c2ccccc12)C(=O)N[C@@H](CCCNC(=N)N)C(=O)N[C@@H](CCCCN)C(=O)N[C@@H](CCCNC(=N)N)C(=O)N[C@@H](Cc1c[nH]c2ccccc12)C(=O)N[C@@H](Cc1c[nH]c2ccccc12)C(=O)N[C@@H](Cc1c[nH]c2ccccc12)C(=O)N[C@@H](CCCNC(=N)N)C(=O)N[C@@H](CCCCN)C(=O)N[C@@H](Cc1c[nH]c2ccccc12)C(=O)N[C@@H](CCCNC(=N)N)C(=O)N[C@@H](CCCCN)C(=O)N[C@@H](CCCNC(=N)N)C(=O)N[C@@H](Cc1c[nH]c2ccccc12)C(=O)N[C@@H](Cc1c[nH]c2ccccc12)C(N)=O [GIN 7] (Ac-WRKWRKRWWWRKWRKRWW-NH2),IC50,HSV2 clinical isolates,< 3.3 µM
